Results as given in PubChem BioAssay AID2060625 (Molecular Pharmacology Branch, DTP, NCI, 2025).
pIC50: −log10 of the molar value. “And” between values parts separate entries of the source, which are not always exact repeats. Equal values may be shown once.

Tested on: 186277-243-T-J2-PDC spheroids with HUVEC/MSC, viability
Assay: Anticancer human tumor 186277-243-T-J2-PDC patient-derived colon adenocarcinoma cell line growth inhibition [CLK]
Conditions: for viability, T/C: stronger effect = lower value
Procedure, shortened: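 Patient-derived tumor cells grown as complex spheroids with HUVEC endothelial cells and mesenchymal stem cells, treated with drug combinations. Concentrations descend in half-log steps from near clinical Cmax, or from 10 microM if Cmax unknown.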

[1] = curve of first compound, second compound 0.0316 µM
[2] = curve of first compound, second compound 0.1 µM
[3] = curve of first compound, second compound 0.316 µM
[4] = curve of first compound, second compound 1 µM
[5] = curve of first compound, second compound 3.16 µM
[6] = curve of first compound, second compound 10 µM
[7] = second compound 0.0316 µM, first compound 0.00316 µM
[8] = second compound 0.0316 µM, first compound 0.01 µM
[9] = second compound 0.0316 µM, first compound 0.0316 µM
[10] = second compound 0.0316 µM, first compound 0.1 µM
[11] = second compound 0.0316 µM, first compound 0.316 µM
[12] = second compound 0.0316 µM, first compound 1 µM
[13] = second compound 0.1 µM, first compound 0.00316 µM
[14] = second compound 0.1 µM, first compound 0.01 µM
[15] = second compound 0.1 µM, first compound 0.0316 µM
[16] = second compound 0.1 µM, first compound 0.1 µM
[17] = second compound 0.1 µM, first compound 0.316 µM
[18] = second compound 0.1 µM, first compound 1 µM
[19] = second compound 0.316 µM, first compound 0.00316 µM
[20] = second compound 0.316 µM, first compound 0.01 µM
[21] = second compound 0.316 µM, first compound 0.0316 µM
[22] = second compound 0.316 µM, first compound 0.1 µM
[23] = second compound 0.316 µM, first compound 0.316 µM
[24] = second compound 0.316 µM, first compound 1 µM
[25] = second compound 1 µM, first compound 0.00316 µM
[26] = second compound 1 µM, first compound 0.01 µM
[27] = second compound 1 µM, first compound 0.0316 µM
[28] = second compound 1 µM, first compound 0.1 µM
[29] = second compound 1 µM, first compound 0.316 µM
[30] = second compound 1 µM, first compound 1 µM
[31] = second compound 3.16 µM, first compound 0.00316 µM
[32] = second compound 3.16 µM, first compound 0.01 µM
[33] = second compound 3.16 µM, first compound 0.0316 µM
[34] = second compound 3.16 µM, first compound 0.1 µM
[35] = second compound 3.16 µM, first compound 0.316 µM
[36] = second compound 3.16 µM, first compound 1 µM
[37] = second compound 10 µM, first compound 0.00316 µM
[38] = second compound 10 µM, first compound 0.01 µM
[39] = second compound 10 µM, first compound 0.0316 µM
[40] = second compound 10 µM, first compound 0.1 µM
[41] = second compound 10 µM, first compound 0.316 µM
[42] = second compound 10 µM, first compound 1 µM
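Further: compound exposure lasted seven days before readout.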
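Wherever viability, T/C is given: 100% = DMSO vehicle control wells.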

CCc1c2c(nc3ccc(O)cc13)-c1cc3c(c(=O)n1C2)COC(=O)[C@]3(O)CC + CNC(=O)c1ccc(Nc2nc(OC3CCCC3)c3c(-c4ccc5nc(C)oc5c4)c[nH]c3n2)c(OC)c1
pIC50 [1]: 7.61 | pIC50 [2]: 7.65 | pIC50 [3]: 7.94 | pIC50 [4]: > 8.50 | pIC50 [5]: > 8.50 | pIC50 [6]: > 8.50 | viability, T/C [7]: 101% | viability, T/C [8]: 73.3% | viability, T/C [9]: 43.3% | viability, T/C [10]: 23.4% | viability, T/C [11]: 16.7% | viability, T/C [12]: 11.2% | viability, T/C [13]: 77.8% | viability, T/C [14]: 71% | viability, T/C [15]: 40.5% | viability, T/C [16]: 19.2% | viability, T/C [17]: 16.6% | viability, T/C [18]: 10.3% | viability, T/C [19]: 64.4% | viability, T/C [20]: 54% | viability, T/C [21]: 21% | viability, T/C [22]: 12.9% | viability, T/C [23]: 12.4% | viability, T/C [24]: 7.31% | viability, T/C [25]: 47.3% | viability, T/C [26]: 31.8% | viability, T/C [27]: 12.8% | viability, T/C [28]: 8.64% | viability, T/C [29]: 5.93% | viability, T/C [30]: 4% | viability, T/C [31]: 43.4% | viability, T/C [32]: 23.8% | viability, T/C [33]: 8.87% | viability, T/C [34]: 10.9% | viability, T/C [35]: 6.99% | viability, T/C [36]: 3.82% | viability, T/C [37]: 40.6% | viability, T/C [38]: 24% | viability, T/C [39]: 10.3% | viability, T/C [40]: 6.46% | viability, T/C [41]: 7.11% | viability, T/C [42]: 4.09%

C=CC(=O)Nc1cc(Nc2nccc(-c3cn(C)c4ccccc34)n2)c(OC)cc1N(C)CCN(C)C
viability, T/C (compound 0.000949 µM): 84.2% and 100% | viability, T/C (compound 0.003 µM): 98.2% and 101% | viability, T/C (compound 0.00949 µM): 84.3% and 112% | viability, T/C (compound 0.03 µM): 82.3% and 97.6% | viability, T/C (compound 0.0949 µM): 83.6% and 116% | viability, T/C (compound 0.3 µM): 87.2% and 95.1% | pIC50 (curve of compound): < 6.52

COc1ccc([C@@H](O)c2cc(-c3ncnc4cc(N5CCOCC5)ccc34)c(F)cc2Cl)nn1
viability, T/C (compound 0.0316 µM): 95.1% | viability, T/C (compound 0.1 µM): 96.1% | viability, T/C (compound 0.316 µM): 117% | viability, T/C (compound 1 µM): 85.1% | viability, T/C (compound 3.16 µM): 87.2% | viability, T/C (compound 10 µM): 49.2% | pIC50 (curve of compound): 5.00

CCN1CCN(Cc2ccc(Nc3ncc(F)c(-c4cc(F)c5nc(C)n(C(C)C)c5c4)n3)nc2)CC1 + CNC(=O)c1ccc(Nc2nc(OC3CCCC3)c3c(-c4ccc5nc(C)oc5c4)c[nH]c3n2)c(OC)c1
pIC50 [1]: < 6.00 | pIC50 [2]: < 6.00 | pIC50 [3]: < 6.00 | pIC50 [4]: > 8.50 | pIC50 [5]: > 8.50 | pIC50 [6]: > 8.50 | viability, T/C [7]: 123% | viability, T/C [8]: 101% | viability, T/C [9]: 148% | viability, T/C [10]: 116% | viability, T/C [11]: 125% | viability, T/C [12]: 117% | viability, T/C [13]: 92.7% | viability, T/C [14]: 98.5% | viability, T/C [15]: 104% | viability, T/C [16]: 103% | viability, T/C [17]: 114% | viability, T/C [18]: 104% | viability, T/C [19]: 59% | viability, T/C [20]: 64.3% | viability, T/C [21]: 71.6% | viability, T/C [22]: 78.8% | viability, T/C [23]: 76.5% | viability, T/C [24]: 74.8% | viability, T/C [25]: 41.8% | viability, T/C [26]: 47.8% | viability, T/C [27]: 48.3% | viability, T/C [28]: 60.5% | viability, T/C [29]: 58.1% | viability, T/C [30]: 61.5% | viability, T/C [31]: 39.1% | viability, T/C [32]: 39.2% | viability, T/C [33]: 45.2% | viability, T/C [34]: 47% | viability, T/C [35]: 51.9% | viability, T/C [36]: 59.6% | viability, T/C [37]: 41% | viability, T/C [38]: 39.9% | viability, T/C [39]: 46.5% | viability, T/C [40]: 43.4% | viability, T/C [41]: 47.8% | viability, T/C [42]: 46.9%

CCc1c2c(nc3ccc(O)cc13)-c1cc3c(c(=O)n1C2)COC(=O)[C@]3(O)CC
viability, T/C (compound 0.00316 µM): 115% and 111% | viability, T/C (compound 0.01 µM): 95.3% and 79.7% | viability, T/C (compound 0.0316 µM): 66.4% and 56.8% | viability, T/C (compound 0.1 µM): 30.3% and 24.5% | viability, T/C (compound 0.316 µM): 26% and 21.8% | viability, T/C (compound 1 µM): 21.6% and 16.9% | pIC50 (curve of compound): 7.27 and 7.46

COc1c(OCCCN2CCOCC2)ccc2c3n(c(=NC(=O)c4cnc(N)nc4)nc12)CCN3 + CNC(=O)c1ccc(Nc2nc(OC3CCCC3)c3c(-c4ccc5nc(C)oc5c4)c[nH]c3n2)c(OC)c1
pIC50 [1]: 7.52 | pIC50 [2]: > 8.50 | pIC50 [3]: > 8.50 | pIC50 [4]: > 8.50 | pIC50 [5]: > 8.50 | pIC50 [6]: > 8.50 | viability, T/C [7]: 86.7% | viability, T/C [8]: 93.3% | viability, T/C [9]: 47.4% | viability, T/C [10]: 20% | viability, T/C [11]: 13.3% | viability, T/C [12]: 7.3% | viability, T/C [13]: 49.4% | viability, T/C [14]: 42.1% | viability, T/C [15]: 23.9% | viability, T/C [16]: 9.52% | viability, T/C [17]: 9.27% | viability, T/C [18]: 5.48% | viability, T/C [19]: 29.3% | viability, T/C [20]: 22.8% | viability, T/C [21]: 12.3% | viability, T/C [22]: 6.69% | viability, T/C [23]: 6.54% | viability, T/C [24]: 3.73% | viability, T/C [25]: 17.2% | viability, T/C [26]: 14.2% | viability, T/C [27]: 9.1% | viability, T/C [28]: 6.05% | viability, T/C [29]: 5.94% | viability, T/C [30]: 2.82% | viability, T/C [31]: 17% | viability, T/C [32]: 15% | viability, T/C [33]: 8.99% | viability, T/C [34]: 4.81% | viability, T/C [35]: 4.85% | viability, T/C [36]: 1.73% | viability, T/C [37]: 21% | viability, T/C [38]: 14.5% | viability, T/C [39]: 6.54% | viability, T/C [40]: 6.2% | viability, T/C [41]: 3.21% | viability, T/C [42]: 2.06%
